On the set-up of data set [1]: method as in Yao et al., 2014. To be noted: PBS, within 24 h, ref Yao et al., 2014; cited from earlier work.
Details of data set [2]: method as in Zhang et al., 2007. The note with it: after p.o. administration, ref Zhang et al., 2007; cited from earlier work.
The subject of data set [3] is rat osteoporosis model (OVX). The experiment in a line: Anti-osteoporotic effect in OVX rats: micro-CT analysis of femur. In kind it is in vivo. The method, then:
(§1) Bilateral ovariectomy (OVX) was performed to establish the rat osteoporosis model according to earlier work (Shakir et al., [2015]). Next, 24 rats were randomly divided into four groups (n = 6): sham operation group (Sham), OVX model group (OVX), free AS group (AS) and AS-AL-mPEG-PLGA group. Rats were anesthetized by intraperitoneal injection of pentobarbital sodium (1%, 8 mL/kg). Later, the rats were placed on a sterile table and fixed prone, while the surgical site on the back was shaved and sterilized with iodophor. Double incisions were taken under the costal back to separate the muscular layer and retroperitoneum into the abdominal cavity. The ovaries were found in the adipose tissue below the kidneys and were removed with bent tweezers and ligated before complete excision of the bilateral ovaries. After confirming that there was no active bleeding, the muscle layer and skin were interlocked, whilst the wound was disinfected. In the Sham group, only a small amount of adipose tissue around the ovaries was removed without damage to both ovaries. The operation was done gently while attention was paid to the sterility principle. After the operation, the rats were kept warm, while drug administration began 4 weeks afterwards at once a day for 12 weeks. Rats in the groups Sham and OVX were given 2 mL of normal saline via the oral route. Rats in the AS and AS-AL-mPEG-PLGA groups orally received 2 mL of free AS (dispersed in CMC-Na solution, 150 mg/kg) and AS-AL-mPEG-PLGA solution (150 mg/kg) every day, respectively.
In order to evaluate the bone microstructure, the right femur was analyzed with high-resolution micro-CT using the micro-CT imaging system (Siemens, Inveon) according to the method described in the literature (Zhang et al., [2012]). The femur was fixed in the centrifuge tube by the long axis, while the surrounding was filled with gauze. Quantitative parameters of bone microstructure including percent bone volume (BV/TV), trabecular thickness (Tb.Th), trabecular number (Tb.N), trabecular separation (Tb.Sp), structural model index (SMI) and bone mineral density (BMD) were measured. All the digital data, 2 D and 3 D images were provided by the built-in software of micro-CT (Siemens, Inveon).

Data set [4] is described as follows: Drug release study in vitro by dialysis. In kind it is physicochemical. To be noted: within 48 h, 37 °C. Here is the method:
The release of AS in vitro was determined by dialysis (Algul et al., [2018]). AS free drug dispersion solution (5 mg/mL, 1 mL) and AS-AL-mPEG-PLGA containing the same volume and concentration of AS were added into dialysis bags (MV 3500 D, 25 mm × 5 m) accordingly. The dialysis bags were placed in a conical flask after their two sections have been fastened together. Subsequently, 100 mL releasing media (pH 1.2 HCl solution, double distilled water and pH 7.4 PBS solution) were added consequently, before the conical flask was placed in a thermostatic water bath oscillator (37 ± 0.5 °C, 100 rpm) for in vitro release experiment. Samples were taken from the conical flask after 0.083, 0.25, 0.5, 0.75, 1, 1.5, 2, 3, 4, 6, 8, 10, 12, 24, 36, 48, 60, 72, 84 and 96 h of oscillation, respectively, while the same stable release medium with the same volume was added accordingly to maintain its dynamic balance. The samples were centrifugated at 10,000 rpm for 10 min before injection into HPLC for analysis according to the chromatographic conditions under the section of “HPLC analysis of AS.” Finally, the peak areas were recorded, and the concentrations of AS were substituted into the standard curve to calculate the cumulative drug release rate.

Data set [5] is described as follows: Detection of AS content in rats' bones. To be noted: femur homogenate (1 g/mL saline) after the pharmacokinetic experiment, oral 150 mg/kg. It counts as in vivo. Here is the method:
After the pharmacokinetic experiment, the rats were sacrificed and the femurs were homogenized with normal saline at a ratio of 1 g/mL. We then centrifugated the homogenized samples at 10,000 rpm for 10 min, before treatment of the supernatant (200 μL) via the same method as described in the section “Pharmacokinetic study in rats.” Finally, the samples were analyzed via the HPLC method to detect the AS concentration in rats’ bones.

Data set [6] concerns rat osteoporosis model (OVX). The experiment in a line: Anti-osteoporotic effect in OVX rats: histological analysis (H&E) of femur. It counts as in vivo. The note with it: compared with the OVX group. The method, then: as §1, with “Rats in the AS and AS-AL-mPEG-PLGA groups orally received 2 mL of free AS (dispersed in CMC-Na solution, 150 mg/kg) and AS-AL-mPEG-PLGA solution (150 mg/kg) every day, respectively.” left out

Data set [7] relates to rat osteoporosis model (OVX). Kind of data set: Anti-osteoporotic effect in OVX rats: serum biochemical analysis (ELISA). It counts as in vivo. The method, then:
as §1
All the rats were sacrificed and blood samples were collected. The serum levels of TRACP-5b, BGP, IL-6 and CTX-1 were determined by enzyme-linked immunosorbent assay (ELISA) to evaluate bone absorption and bone formation. The operation steps were strictly in accordance with the instructions of the kits. Finally, the absorbances of the samples were measured at 450 nm with the microplate reader, so as to calculate the concentration of each biochemical index in the serum.
A general note: ELISA stands for enzyme-linked immunosorbent assay.

A short description of data set [8]: Pharmacokinetic study in rats. It counts as in vivo, SD rats. The note with it: oral. The method, then: Twelve SD rats (male, 200 ± 20 g) were maintained in the laboratory environment for 3 days before experiments. The rats were randomly divided into the free AS group and AS-AL-mPEG-PLGA group with 6 rats in each group. The rats have fasted from food for 12 h with free access to water before the experiment. Rats in the two groups were orally given free AS (dispersed CMC-Na solution) and AS-AL-mPEG-PLGA of equivalent AS dose (150 mg/kg). At each point of 0.25, 0.5, 0.75, 1, 1.5, 2, 2.5, 3, 4, 6, 8, 10, 12 and 24 h after administration, blood samples (0.4 mL) were collected from the orbit of rats with capillaries. The blood samples were placed in a 1.5 mL EP tube filled with heparin sodium and centrifuged at 3700 rpm for 10 min. Aliquot (200 μL) of supernatant was collected into another clean 1.5 mL EP tube. Next, 600 μL of methanol was added into the tube before vortexing for 1 min. The mixture was centrifuged at 10,000 rpm for 10 min and the methanol layer was […] prior to drying with N2 at 37 °C. The residue was dissolved with 100 μL methanol coupled with vortexing for 1 min, and then 10 min of centrifugation at 10,000 rpm. Then, the supernatant was taken and analyzed with HPLC. The peak areas of AS and internal standard were recorded and substituted into the standard curve in vivo to subsequently calculate the concentration of AS.

[9] abbreviates: oral 150 mg/kg daily, 12 weeks, P < .01.

Turning to `CN(C)c1ccc(O)c2c1C[C@H]1C[C@H]3[C@H](N(C)C)C(O)=C(C(N)=O)C(=O)[C@@]3(O)C(O)=C1C2=O` [free minocycline, minocycline], in data set [1], the minocycline released was ~100%.
Broadly, the Cmax is the peak of the concentration-time curve. As a reminder, the MRT is the average time that molecules of a dose stay in the body. By Tmax is commonly meant the time from dosing to the highest level. On to Astragaloside, for which the absolute bioavailability in data set [2] is given as 7.4%. Further, the “bone microstructure in 2D and 3D micro-CT images” value in data set [3] (compared with OVX group) is “significantly reduce osteoporosis and increase dense bone mass”. Moreover, in data set [3] (oral 150 mg/kg daily, 12 weeks), the “BMD (bone mineral density)” value is listed as “notably increased”, the “BV/TV (percent bone volume)” value is on record as “notably increased”, the “SMI (structural model index)” value is “substantially reduced” and the “Tb.N (trabecular number)” value was “notably increased”. In data set [3] (oral 150 mg/kg daily, 12 weeks), the “Tb.Sp (trabecular separation)” value is “substantially reduced” and the “Tb.Th (trabecular thickness)” value is on record as “notably increased”. In data set [4] (double distilled water), the cumulative release rate stood at 93.85%. Besides, in data set [4] (pH 1.2 HCl solution), the cumulative release rate is given as 96.87%. In addition, the cumulative release rate in data set [4] (pH 7.4 PBS solution) came out at 95.95%. In addition, the “concentration of AS in bone” value in data set [5] stood at 1950 ± 170 ng/mL. Besides, in data set [6], the “adipose tissue in femur, H&E staining” value was “relatively less adipose tissue”. Moreover, in data set [7] (setting [9]), the “expression level of IL-6 compared with OVX group” value is recorded as “decreased significantly”, the “serum level of BGP compared with OVX group” value was “significantly decreased”, the “serum level of CTX-1 compared with OVX group” value is recorded as “significantly decreased” and the “serum level of TRACP-5b compared with OVX group” value was “significantly decreased”. Besides, the “serum level of IL-6” value in data set [7] (oral 150 mg/kg once a day for 12 weeks) is given as 53.88 ± 4.23 pg/mL. Also, the “mean plasma concentration at 1440 min” value in data set [8] (150 mg/kg) was 260 ± 50 ng/mL. In data set [8] (AS dose 150 mg/kg), this compound showed an AUC0-t of 1520.45 ± 45.19 µg·min/mL, a Cmax of 5250 ± 500 ng/mL, an MRT of 5.55 ± 0.143 h and a T1/2 of 6.5952 ± 0.4407 h. Further, the Tmax in data set [8] (AS dose 150 mg/kg) was found to be 2 ± 0 h.

The values are drawn from publication PMC9310824 (Drug Delivery, 2022).
